Patent US10000488B2, “Heterocyclic compound” (TAKEDA PHARMACEUTICAL COMPANY LIMITED, priority 2014, dated 2018)
Counter-ions that a name gives are not always drawn.

Legend:
[1] = target: T1, RORγt (Homo sapiens, UniProt P51449); test: Jurkat reporter test (human IL-17 ROR response element luciferase reporter, RORγt vector); format: cell-based; conditions: test compound 3 μM; Jurkat cells; read-out: luminescence level inhibitory rate (%) at test compound 3 μM
T1 sequence (P51449 1-497 isoform P51449-2): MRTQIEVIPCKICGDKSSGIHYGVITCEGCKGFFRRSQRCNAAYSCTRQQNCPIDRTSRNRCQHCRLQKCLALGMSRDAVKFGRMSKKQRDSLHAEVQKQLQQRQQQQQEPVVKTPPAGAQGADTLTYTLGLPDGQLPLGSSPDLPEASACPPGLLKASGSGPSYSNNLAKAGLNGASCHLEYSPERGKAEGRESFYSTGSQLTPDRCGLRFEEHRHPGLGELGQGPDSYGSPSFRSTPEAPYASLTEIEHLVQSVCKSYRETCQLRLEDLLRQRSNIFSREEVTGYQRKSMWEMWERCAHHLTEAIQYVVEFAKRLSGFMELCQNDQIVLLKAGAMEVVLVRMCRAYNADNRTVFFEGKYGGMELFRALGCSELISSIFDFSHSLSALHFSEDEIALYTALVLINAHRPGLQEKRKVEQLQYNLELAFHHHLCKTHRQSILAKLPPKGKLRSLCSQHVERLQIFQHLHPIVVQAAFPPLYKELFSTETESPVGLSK
In short: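 Jurkat cells were electroporated (1350 V, 10 ms, 3 pulses) with the reporter constructs and plated in RPMI with 10% lipid-reduced FCS, 10 mM HEPES pH 7.5 and 5 μM lovastatin. After overnight culture with compound, luciferase activity was measured by luminescence following a 10 min room-temperature incubation with Bright-Glo.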

[2] = target: T1, RORγt; test: Cofactor recruitment test (Alpha Screen, biotinylated SRC-1 peptide); format: biochemical; conditions: read-out: signal value inhibitory rate (%) at test compound 1 μM
Method: Cofactor Recruitment Test
Cofactor recruitment test was performed by Alpha Screen (Histidine Detection Kit, PerkinElmer) method. First, a test compound was diluted with an assay buffer (50 mM Tris-HCl (pH 7.5), 50 mM KCl, 1 mM DTT, 0.1% BSA) and added to a 384 well plate by 5 μL. […] The mixture was stood in a dark place for 1 hr, and the signal value was measured by Envision (PerkinElmer).

[3] = target: T1, RORγt; test: RORγt binding test using fluorescent-labeled synthetic ligand (TR-FRET); conditions: test compound 1 μM; read-out: binding inhibitory rate (%) of fluorescent-labeled synthetic ligand to RORγt at test compound 1 μM
In short: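 Compound displacement of a fluorescent-labeled synthetic ligand from His-tagged RORγt was read by TR-FRET with a terbium anti-His antibody. Buffer was 20 mM Tris-HCl pH 7.5, 100 mM NaCl, 1 mM DTT and 0.1% BSA, with stocks of 240 nM protein, 12 μM ligand and 8 nM antibody (pre-mix, not final). Incubations were 20 min plus 20 min at room temperature, with excitation at 320 nm, emission at 520 nm and a 100 μs delay.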

Compound | inhibition at 3 µM [1] [%] | inhibition at 1 µM [2] [%] | inhibition at 1 µM [3] [%]
CC(C)n1c(=O)n(CC2CC2)c(=O)c2cc(NC(=O)N3CCCC(NC(=O)c4ccc(C#N)cc4)C3)ccc21 (stereo not drawn) [Example 180, 3-((4-cyanobenzoyl)amino)-N-(3-(cyclopropylmethyl)-1-isopropyl-2,4-dioxo-1,2,3,4-tetrahydroquinazolin-6-yl)piperidine-1-carboxamide] | 101 | 111 | 102
CC(C)n1c(=O)n(CC2CC2)c(=O)c2cc(NC(=O)N3CCNC(C(=O)Nc4ccc(C#N)c(F)c4)C3)ccc21 (stereo not drawn) [Example 92, N^3-(4-cyano-3-fluorophenyl)-N^1-(3-(cyclopropylmethyl)-1-isopropyl-2,4-dioxo-1,2,3,4-tetrahydroquinazolin-6-yl)piperazine-1,3-dicarboxamide hydrochloride] | 103 | 103 | 102
CC(C)n1c(=O)n(CC2CC2)c(=O)c2cc(NC(=O)N3CCOC(C(=O)Nc4cc(F)c(C#N)cc4F)C3)ccc21 (stereo not drawn) [Example 135, N^2-(4-cyano-2,5-difluorophenyl)-N^4-(3-(cyclopropylmethyl)-1-isopropyl-2,4-dioxo-1,2,3,4-tetrahydroquinazolin-6-yl)morpholine-2,4-dicarboxamide] | 99 | 113 | 102
CC(C)n1c(=O)n(CC2CC2(F)F)c(=O)c2cc(NC(=O)N3CCOC(C(=O)Nc4ccc(C#N)c(Cl)c4)C3)c(F)cc21 (single isomer, unassigned) [Example 366, (2R)—N^2-(3-chloro-4-cyanophenyl)-N^4-(3-(((1R or 1S)-2,2-difluorocyclopropyl)methyl)-7-fluoro-1-isopropyl-2,4-dioxo-1,2,3,4-tetrahydroquinazolin-6-yl)morpholine-2,4-dicarboxamide (one stereoisomer, quinazolinedione: derived from tR1)] | 108 | 105 | 102
CC(C)n1c(=O)n(CC2CC2)c(=O)c2cc(NC(=O)N3CCO[C@@H](C(=O)Nc4ccc(C#N)c(F)c4)C3)ccc21 [Example 102, (2R)-N^2-(4-cyano-3-fluorophenyl)-N^4-(3-(cyclopropylmethyl)-1-isopropyl-2,4-dioxo-1,2,3,4-tetrahydroquinazolin-6-yl)morpholine-2,4-dicarboxamide] | 104 | 102 | 101
CC(C)n1c(=O)n(CC2CC2)c(=O)c2cc(NC(=O)N3CCO[C@@H](C(=O)Nc4cnc(C#N)c(F)c4)C3)ccc21 [Example 103, (2R)-N^2-(6-cyano-5-fluoropyridin-3-yl)-N^4-(3-(cyclopropylmethyl)-1-isopropyl-2,4-dioxo-1,2,3,4-tetrahydroquinazolin-6-yl)morpholine-2,4-dicarboxamide] | 103 | 102 | 101
CC(C)n1c(=O)n(CC2CC2)c(=O)c2cc(NC(=O)N3CCC[C@@H](NC(=O)c4ccc(C#N)nc4)C3)ccc21 [Example 223, 6-cyano-N-((3R)-1-((3-(cyclopropylmethyl)-1-isopropyl-2,4-dioxo-1,2,3,4-tetrahydroquinazolin-6-yl)carbamoyl)piperidin-3-yl)nicotinamide] | 102 | 111 | 102
CC(C)n1c(=O)n(CC2CC(F)(F)C2)c(=O)c2cc(NC(=O)N3CCO[C@@H](C(=O)Nc4cc(Cl)c(C#N)cc4F)C3)c(F)cc21 [Example 351, (2R)—N^2-(5-chloro-4-cyano-2-fluorophenyl)-N^4-(3-((3,3-difluorocyclobutyl)methyl)-7-fluoro-1-isopropyl-2,4-dioxo-1,2,3,4-tetrahydroquinazolin-6-yl)morpholine-2,4-dicarboxamide] | 106 | 108 | 101

Results, then the compound that gave them:

inhibition at 3 µM [1] [%] | inhibition at 1 µM [2] [%] | inhibition at 1 µM [3] [%] | Compound
102 | 102 | 102 | Cc1ccc(F)c(C(=O)N[C@@H]2CCCN(C(=O)Nc3ccc4c(c3)c(=O)n(CC3CC3)c(=O)n4C(C)C)C2)c1 [Example 259, (3R)-N-(3-(Cyclopropylmethyl)-1-isopropyl-2,4-dioxo-1,2,3,4-tetrahydroquinazolin-6-yl)-3-((2-fluoro-5-methylbenzoyl)amino)piperidine-1-carboxamide]
107 | 106 | 102 | CC(C)n1c(=O)n(CC2CC(F)(F)C2)c(=O)c2cc(NC(=O)N3CCC[C@@H](n4cnc5cc(C#N)ccc5c4=O)C3)c(F)cc21 [Example 363, (3R)-3-(7-cyano-4-oxoquinazoline-3(4H)-yl)-N-(3-((3,3-difluorocyclobutyl)methyl)-7-fluoro-1-isopropyl-2,4-dioxo-1,2,3,4-tetrahydroquinazolin-6-yl)piperidine-1-carboxamide]
110 | 105 | 102 | CC(C)n1c(=O)n(CC2CC2(F)F)c(=O)c2cc(NC(=O)N3CCCC(n4cnc5cc(C#N)ccc5c4=O)C3)c(F)cc21 (single isomer, unassigned) [Example 367, (3R)-3-(7-cyano-4-oxoquinazoline-3(4H)-yl)-N-(3-(((1R or 1S)-2,2-difluorocyclopropyl)methyl)-7-fluoro-1-isopropyl-2,4-dioxo-1,2,3,4-tetrahydroquinazolin-6-yl)piperidine-1-carboxamide (one stereoisomer, quinazolinedione: derived from tR1)]
101 | 112 | 102 | CC(C)n1c(=O)n(CC2CC2)c(=O)c2cc(NC(=O)N3CCC[C@@H](NC(=O)c4ccc(C#N)s4)C3)c(F)cc21 [Example 292, (3R)-3-(((5-cyano-2-thienyl)carbonyl)amino)-N-(3-(cyclopropylmethyl)-7-fluoro-1-isopropyl-2,4-dioxo-1,2,3,4-tetrahydroquinazolin-6-yl)piperidine-1-carboxamide]
102 | 112 | 102 | CC(C)n1c(=O)n(CC2CC2)c(=O)c2cc(NC(=O)N3CCC[C@@H](NC(=O)c4ccc(C#N)cc4)C3)c(F)cc21 [Example 284, (3R)-3-((4-cyanobenzoyl)amino)-N-(3-(cyclopropylmethyl)-7-fluoro-1-isopropyl-2,4-dioxo-1,2,3,4-tetrahydroquinazolin-6-yl)piperidine-1-carboxamide]
107 | 105 | 101 | CC(C)n1c(=O)n(CC2CC2(F)F)c(=O)c2cc(NC(=O)N3CCCC(n4cnc5cc(C#N)ccc5c4=O)C3)c(F)cc21 (mixture of isomers) [Example 360, (3R)-3-(7-cyano-4-oxoquinazoline-3(4H)-yl)-N-(3-((2,2-difluorocyclopropyl)methyl)-7-fluoro-1-isopropyl-2,4-dioxo-1,2,3,4-tetrahydroquinazolin-6-yl)piperidine-1-carboxamide (mixture of two stereoisomers)]
